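Protocol summary: plate cells (96-well), add compound at 5 concentrations, incubate 48 h, interpolate endpoints linearly. Abbreviation: GI50, concentration required for 50% inhibition of growth. The concentration for full growth arrest is given as TGI.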
Columns and labels:
Experiment in all cases: NCI-60 cell line screen, 48 h
[1] = tested on: CCRF-CEM leukemia
[2] = tested on: HCT-116 colon
[3] = tested on: UACC-62 melanoma
[4] = tested on: SN12C renal
[5] = tested on: K-562 leukemia
[6] = tested on: RXF 393 renal
[7] = tested on: UACC-257 melanoma
[8] = tested on: SK-MEL-5 melanoma
[9] = tested on: BT-549 breast
[10] = tested on: OVCAR-4 ovarian
[11] = tested on: NCI-H226 lung
[12] = tested on: DU-145 prostate
[13] = tested on: SR leukemia
[14] = tested on: SF-268 CNS
[15] = tested on: MCF7 breast
[16] = tested on: SNB-19 CNS
[17] = tested on: HS 578T breast
[18] = tested on: MOLT-4 leukemia
[19] = tested on: TK-10 renal
[20] = tested on: SK-MEL-2 melanoma
[21] = tested on: MDA-MB-435
[22] = tested on: HOP-92 NSCLC
[23] = tested on: A549 NSCLC
[24] = tested on: A498 renal
[25] = tested on: LOX IMVI melanoma
[26] = tested on: 786-0 renal
[27] = tested on: SW-620 colon
[28] = tested on: RPMI-8226 leukemia
[29] = tested on: NCI-H460 lung
[30] = tested on: OVCAR-8 ovarian
[31] = tested on: KM12 colon
[32] = tested on: COLO 205 colon
[33] = tested on: MALME-3M melanoma
[34] = tested on: UO-31 renal
[35] = tested on: HT29 colon
[36] = tested on: HCT-15 colon

CCN(CC)CCCNc1c2ccc(Cl)cc2nc2ccc(OC)cc12
GI50 [1]: 47.3 nM
TGI [1]: 3.67 µM
GI50 [2]: 30.7 nM
TGI [2]: 1640 nM
GI50 [3]: 1840 nM
TGI [3]: 3.55 µM
GI50 [4]: 57.5 nM
TGI [4]: 3.69 µM
GI50 [5]: 30.8 nM
TGI [5]: 6.08 µM
GI50 [6]: 40.3 nM
TGI [6]: 2150 nM
GI50 [7]: 1830 nM
TGI [7]: 3.41 µM
GI50 [8]: 1640 nM
TGI [8]: 3.02 µM
GI50 [9]: 1780 nM
TGI [9]: 3.63 µM
GI50 [10]: 30.4 nM
TGI [10]: 2770 nM
GI50 [11]: 1840 nM
TGI [11]: 4.88 µM
GI50 [12]: 47.6 nM
TGI [12]: 4.08 µM
GI50 [13]: 29 nM
TGI [13]: 3.67 µM
GI50 [14]: 61.8 nM
TGI [14]: 3.53 µM
GI50 [15]: 37.7 nM
TGI [15]: 3.16 µM
GI50 [16]: 58.7 nM
TGI [16]: 4.57 µM
GI50 [17]: 2050 nM
TGI [17]: 5.54 µM
GI50 [18]: 33.8 nM
TGI [18]: 2910 nM
GI50 [19]: 1690 nM
TGI [19]: 4.83 µM
GI50 [20]: 1690 nM
TGI [20]: 3.31 µM
GI50 [21]: 61.4 nM
TGI [21]: 2040 nM
GI50 [22]: 1410 nM
TGI [22]: 3.62 µM
GI50 [23]: 58.2 nM
TGI [23]: 5.83 µM
GI50 [24]: 1510 nM
TGI [24]: 2860 nM
GI50 [25]: 34.2 nM
TGI [25]: 1930 nM
GI50 [26]: 44.9 nM
TGI [26]: 2150 nM
GI50 [27]: 40.1 nM
TGI [27]: 2360 nM
GI50 [28]: 42 nM
TGI [28]: 2830 nM
GI50 [29]: 32.6 nM
TGI [29]: 1340 nM
GI50 [30]: 55.2 nM
TGI [30]: 3.44 µM
GI50 [31]: 54.1 nM
TGI [31]: 4.45 µM
GI50 [32]: 39.8 nM
TGI [32]: 2010 nM
GI50 [33]: 1600 nM
TGI [33]: 3.38 µM
GI50 [34]: 1630 nM
TGI [34]: 4.83 µM
GI50 [35]: 33 nM
TGI [35]: 1560 nM
GI50 [36]: 34.5 nM
TGI [36]: 2510 nM
